# Legend:
# KM12 = conditions: 48 hours
# TK-10 = conditions: 48 hours
# SF-295 = conditions: 48 hours
# NCI-H460 = conditions: 48 hours
# HCC-2998 = conditions: 48 hours
# UACC-257 = conditions: 48 hours
# OVCAR-4 = conditions: 48 hours
# NCI-H23 = conditions: 48 hours
# SK-OV-3 = conditions: 48 hours
# SK-MEL-28 = conditions: 48 hours
# MOLT-4 = conditions: 48 hours
# A549 = conditions: 48 hours
# PC-3 = conditions: 48 hours
# OVCAR-3 = conditions: 48 hours
# 786-0 = conditions: 48 hours
# DU-145 = conditions: 48 hours
# SF-539 = conditions: 48 hours
# SK-MEL-5 = conditions: 48 hours
# SNB-19 = conditions: 48 hours
# K-562 = conditions: 48 hours
# HOP-92 = conditions: 48 hours
# SW-620 = conditions: 48 hours
# HT29 = conditions: 48 hours
# [1] = read-out: Median Growth Inhibitory Concentration (GI50), Renal Cancer, 48 hours
# [2] = read-out: Median Lethal Concentration (LC50), Renal Cancer, 48 hours, SRB assay
structure (smiles),measurement,setting,value
"O=C1C(=Cc2ccccc2O)COCC1=Cc1ccccc1O [EF25, 3,5-Bis(2-hyrdoxybenzylidene)tetrahydro4-H-pyran4-one]",GI50,"KM12; read-out: Median Growth Inhibitory Concentration (GI50), KM12, Colon Cancer",300 nM
same,CC50,"KM12; read-out: Median Lethal Concentration (LC50), Colon Cancer, KM12, SRB assay",10700 nM
same,GI50,"TK-10; read-out: Median Growth Inhibitory Concentration (GI50), TK-10, Renal Cancer",2200 nM
same,CC50,"TK-10; read-out: Median Lethal Concentration (LC50), Renal Cancer, TK-10, SRB assay",24600 nM
same,GI50,"SF-295; read-out: Median Growth Inhibitory Concentration (GI50), SF-295, CNS Cancer",1700 nM
same,CC50,"SF-295; read-out: Median Lethal Concentration (LC50), CNS Cancer, SF-295, SRB assay",35000 nM
same,GI50,"NCI-H460; read-out: Median Growth Inhibitory Concentration (GI50), NCI-H460, Non-Small Cell Lung Cancer",1200 nM
same,CC50,"NCI-H460; read-out: Median Lethal Concentration (LC50), Non-Small Cell Lung Cancer, NCI-H460, SRB assay",38900 nM
same,GI50,"HCC-2998; read-out: Median Growth Inhibitory Concentration (GI50), HCC-2998, Colon Cancer",1500 nM
same,CC50,"HCC-2998; read-out: Median Lethal Concentration (LC50), Colon Cancer, HCT-2998, SRB assay",5300 nM
same,GI50,"UACC-257; read-out: Median Growth Inhibitory Concentration (GI50), UACC-257, Melanoma",1600 nM
same,CC50,"UACC-257; read-out: Median Lethal Concentration (LC50), Melanoma, UACC-257, SRB assay",8200 nM
same,GI50,"HL-60 (TB); read-out: Median Growth Inhibitory Concentration (GI50), Leukemia, 48 hours",1100 nM
same,CC50,"HL-60 (TB); read-out: Median Lethal Concentration (LC50), Leukemia, 48 hours, SRB assay",> 100000 nM
same,GI50,SN12C; [1],1400 nM
same,CC50,SN12C; [2],12000 nM
same,GI50,"OVCAR-4; read-out: Median Growth Inhibitory Concentration (GI50), OVCAR-4, Ovarian Cancer",2000 nM
same,CC50,"OVCAR-4; read-out: Median Lethal Concentration (LC50), Ovarian Cancer, OVCAR-4, SRB assay",23300 nM
same,GI50,"NCI-H23; read-out: Median Growth Inhibitory Concentration (GI50), NCI-H23, Non-Small Cell Lung Cancer",1700 nM
same,CC50,"NCI-H23; read-out: Median Lethal Concentration (LC50), Non-Small Cell Lung Cancer, NCI-H23, SRB assay",12900 nM
same,GI50,"SK-OV-3; read-out: Median Growth Inhibitory Concentration (GI50), SK-OV-3, Ovarian Cancer",2400 nM
same,CC50,"SK-OV-3; read-out: Median Lethal Concentration (LC50), Ovarian Cancer, SK-OV-3, SRB assay",26900 nM
same,GI50,"NCI/ADR-RES; read-out: Median Growth Inhibitory Concentration (GI50), Breast Cancer, 48 hours",1600 nM
same,CC50,"NCI/ADR-RES; read-out: Median Lethal Concentration (LC50), Breast Cancer, 48 hours, SRB assay",71000 nM
same,GI50,"SK-MEL-28; read-out: Median Growth Inhibitory Concentration (GI50), SK-MEL-28, Melanoma",2400 nM
same,CC50,"SK-MEL-28; read-out: Median Lethal Concentration (LC50), Melanoma, SK-MEL-28, SRB assay",6600 nM
same,GI50,"MOLT-4; read-out: Median Growth Inhibitory Concentration (GI50), MOLT-4, Leukemia",400 nM
same,CC50,"MOLT-4; read-out: Median Lethal Concentration (LC50), Leukemia, MOLT-4, SRB assay",> 100000 nM
same,GI50,"A549; read-out: Median Growth Inhibitory Concentration (GI50), A549, Non-Small Cell Lung Cancer",2500 nM
same,CC50,"A549; read-out: Median Lethal Concentration (LC50), Non-Small Cell Lung Cancer, A549, SRB assay",71800 nM
same,GI50,"PC-3; read-out: Median Growth Inhibitory Concentration (GI50), PC-3, Prostate Cancer",500 nM
same,CC50,"PC-3; read-out: Median Lethal Concentration (LC50), Prostate Cancer, PC-3, SRB assay",24800 nM
same,GI50,"OVCAR-3; read-out: Median Growth Inhibitory Concentration (GI50), OVCAR-3, Ovarian Cancer",900 nM
same,CC50,"OVCAR-3; read-out: Median Lethal Concentration (LC50), Ovarian Cancer, OVCAR-3, SRB assay",23500 nM
same,GI50,"786-0; read-out: Median Growth Inhibitory Concentration (GI50), 786-0, Renal Cancer",400 nM
same,CC50,"786-0; read-out: Median Lethal Concentration (LC50), Renal Cancer, 786-O, SRB assay",32600 nM
same,GI50,"DU-145; read-out: Median Growth Inhibitory Concentration (GI50), DU-145, Prostate Cancer",1200 nM
same,CC50,"DU-145; read-out: Median Lethal Concentration (LC50), Prostate Cancer, DU-145, SRB assay",20100 nM
same,GI50,"SF-539; read-out: Median Growth Inhibitory Concentration (GI50), SF-539, CNS Cancer",500 nM
same,CC50,"SF-539; read-out: Median Lethal Concentration (LC50), CNS Cancer, SF-539, SRB assay",16800 nM
same,GI50,"SK-MEL-5; read-out: Median Growth Inhibitory Concentration (GI50), SK-MEL-5, Melanoma",1500 nM
same,CC50,"SK-MEL-5; read-out: Median Lethal Concentration (LC50), Melanoma, SK-MEL-5, SRB assay",6600 nM
same,GI50,"SNB-19; read-out: Median Growth Inhibitory Concentration (GI50), SNB-19, CNS Cancer",2200 nM
same,CC50,"SNB-19; read-out: Median Lethal Concentration (LC50), CNS Cancer, SNB-19, SRB assay",37300 nM
same,GI50,ACHN; [1],1500 nM
same,CC50,ACHN; [2],18200 nM
same,GI50,"K-562; read-out: Median Growth Inhibitory Concentration (GI50), K-562, Leukemia",600 nM
same,CC50,"K-562; read-out: Median Lethal Concentration (LC50), Leukemia, K-562, SRB assay",91800 nM
same,GI50,"HOP-92; read-out: Median Growth Inhibitory Concentration (GI50), HOP-92, Non-Small Cell Lung Cancer",2400 nM
same,CC50,"HOP-92; read-out: Median Lethal Concentration (LC50), Non-Small Cell Lung Cancer, HOP-92, SRB assay",35400 nM
same,GI50,"SW-620; read-out: Median Growth Inhibitory Concentration (GI50), SW-620, Colon Cancer",500 nM
same,CC50,"SW-620; read-out: Median Lethal Concentration (LC50), Colon Cancer, SW-620, SRB assay",75300 nM
same,GI50,"HT29; read-out: Median Growth Inhibitory Concentration (GI50), HT29, Colon Cancer",2000 nM
same,CC50,"HT29; read-out: Median Lethal Concentration (LC50), Colon Cancer, HT29, SRB assay",67500 nM

# — US7371766B2, “Curcumin analogs with anti-tumor and anti-angiogenic properties” (Emory University, priority 1999, dated 2008)
